In ChEMBL document CHEMBL3400088, “Synthesis and in vitro evaluation of novel 8-aminoquinoline-pyrazolopyrimidine hybrids as potent antimalarial agents” (Bioorg Med Chem Lett, 2015):

What follows are compounds tested on Plasmodium falciparum (assay: Antimalarial activity against drug-sensitive Plasmodium falciparum NF54 by SYBR green-based assay).
Type: functional, organism-based

Compound | IC50 [nM]
Cc1cc(Nc2cccc3cccnc23)n2ncnc2n1 | 880
c1cnc2c(Nc3ccnc4ncnn34)cccc2c1 | 1400
N#Cc1cnc2cc(C3CC3)nn2c1Nc1cccc2cccnc12 | 1600
c1cc(Nc2ccnc3ccnn23)c2ccncc2c1 | 1200
c1cnc2c(Oc3ccnc4ccnn34)cccc2c1 | > 2000
c1cc(Nc2ccnc3ccnn23)c2c(c1)OCCO2 | > 2000
Cc1ccc2cccc(Nc3ccnc4ccnn34)c2n1 | 1700
Cc1ccc2cccnc2c1Nc1ccnc2ccnn12 | > 2000
Cc1cc(Nc2ccnc3ccnn23)c2ncccc2c1 | 63
FC(F)(F)c1cc(Nc2ccnc3ccnn23)c2ncccc2c1 | 42
COc1cc(Nc2ccnc3ccnn23)c2ncccc2c1 | 14
Fc1cc(Nc2ccnc3ccnn23)c2ncccc2c1 | 3.9
Cc1nc2cccc(Nc3cccc4cccnc34)c2o1 | 1300
Cc1nccc(Nc2cccc3cccnc23)n1 | > 500
c1cnc2c(Nc3ccnc4ccnn34)cccc2c1 | 5.3
Cc1cc(Nc2cccc3cccnc23)n2nccc2n1 | < 3.9
N#Cc1cnn2c(Nc3cccc4cccnc34)ccnc12 | 71
Cc1nn2c(Nc3cccc4cccnc34)c(C#N)cnc2c1C | 26
C[C@@H]1CC[C@H]2[C@@H](C)C(=O)O[C@@H]3O[C@@]4(C)CC[C@@H]1[C@]32OO4 [ARTEMISININ] | 7

The compounds below were run on Plasmodium falciparum (assay: Antimalarial activity against multidrug-resistant Plasmodium falciparum K1 by SYBR green-based assay).
Type: functional, organism-based

Compound | IC50 [nM]
Cc1cc(Nc2cccc3cccnc23)n2ncnc2n1 | 760
c1cnc2c(Nc3ccnc4ncnn34)cccc2c1 | 840
N#Cc1cnc2cc(C3CC3)nn2c1Nc1cccc2cccnc12 | 2000
c1cc(Nc2ccnc3ccnn23)c2ccncc2c1 | 1600
c1cnc2c(Oc3ccnc4ccnn34)cccc2c1 | > 2000
c1cc(Nc2ccnc3ccnn23)c2c(c1)OCCO2 | > 2000
Cc1ccc2cccc(Nc3ccnc4ccnn34)c2n1 | 1200
Cc1ccc2cccnc2c1Nc1ccnc2ccnn12 | > 2000
Cc1cc(Nc2ccnc3ccnn23)c2ncccc2c1 | 38
FC(F)(F)c1cc(Nc2ccnc3ccnn23)c2ncccc2c1 | 18
COc1cc(Nc2ccnc3ccnn23)c2ncccc2c1 | 26
Fc1cc(Nc2ccnc3ccnn23)c2ncccc2c1 | 3.9
Cc1nc2cccc(Nc3cccc4cccnc34)c2o1 | 1600
Cc1nccc(Nc2cccc3cccnc23)n1 | > 500
c1cnc2c(Nc3ccnc4ccnn34)cccc2c1 | 7.8
Cc1cc(Nc2cccc3cccnc23)n2nccc2n1 | 6.7
N#Cc1cnn2c(Nc3cccc4cccnc34)ccnc12 | 51
Cc1nn2c(Nc3cccc4cccnc34)c(C#N)cnc2c1C | 27
O=C1C(O)=C([C@H]2CC[C@H](c3ccc(Cl)cc3)CC2)C(=O)c2ccccc21 [ATOVAQUONE] | 2.3

What follows are compounds tested on Plasmodium falciparum (assay: Antimalarial activity against multidrug-resistant Plasmodium falciparum W2 by SYBR green-based assay).
Type: functional, organism-based

Compound | IC50 [nM]
COc1cc(NC(C)CCCN)c2ncccc2c1 (stereo not given) [PRIMAQUINE] | 1470
COc1cc(C)c2c(Oc3cccc(C(F)(F)F)c3)c(OC)cc(NC(C)CCCN)c2n1 (stereo not given) [TAFENOQUINE] | 217
